What was measured:
RBL-2H3 [1] = experiment: Cytotoxicity against rat RBL2H3 cells assessed as reduction in cell viability at 6.3 to 50 ug/ml measured after 3 hrs by CCK8 assay; assay type: cell-based; settings: rbl-2h3, 3 h
HeLa = experiment: Cytotoxicity against human HeLa cells assessed as reduction in cell viability at 12.5 to 100 ug/ml measured after 12 hrs by crystal violet staining based assay
RBL-2H3 [2] = experiment: Antiallergic activity in […]-stimulated rat RBL2H3 cells assessed as inhibition of anti-DNP-IgE-mediated degranulation by measuring decrease in beta-hexosaminidase activity preincubated for 20 mins followed by DNP-BSA stimulation; assay type: functional, cell-based
RBL-2H3 [3] = experiment: Antiallergic activity in rat RBL2H3 cells assessed as inhibition of A23187/PMA-induced beta hexosaminidase release after 1 hr by para-nitrophenyl-N-acetyl-beta-d-glucosaminide substrate based assay; assay type: functional, cell-based
RBL-2H3 [4] = experiment: Antiallergic activity in rat RBL2H3 cells assessed as inhibition of A23187-induced beta hexosaminidase release after 1 hr by para-nitrophenyl-N-acetyl-beta-d-glucosaminide substrate based assay; assay type: functional, cell-based

Structure (SMILES)	Activity (RBL-2H3 [1])	Activity (HeLa)	inhibition (RBL-2H3 [2])	inhibition (RBL-2H3 [3])	inhibition (RBL-2H3 [4])
O=C(O)C(=Cc1ccc(O)cc1)/C=C/c1ccc(O)cc1 (mixture of isomers)	Non-Toxic	Non-Toxic	Dose-dependent effect	Dose-dependent effect	Dose-dependent effect
O=c1c(O)c(-c2ccc(O)c(O)c2)oc2cc(O)cc(O)c12 [QUERCETIN]	–	Toxic	–	–	–
O=C(/C=C/c1ccc(O)c(O)c1)O[C@H]1[C@@H](C(=O)O)OC(C(=O)O)=C[C@H]1OC(=O)/C=C/c1ccc(O)c(O)c1	Non-Toxic	Non-Toxic	Dose-dependent effect	Dose-dependent effect	Dose-dependent effect
O=C1O[C@H](c2ccc(O)cc2)[C@@H](C(=O)O)/C1=C\c1ccc(O)cc1	Non-Toxic	Non-Toxic	Dose-dependent effect	Dose-dependent effect	Dose-dependent effect
COc1cc(-c2oc3cc(O)cc(O)c3c(=O)c2O)ccc1O [ISORHAMNETIN]	–	Non-Toxic	–	–	–

Source: ChEMBL document CHEMBL4392874, “Inhibitory Effects of Phenylpropanoid Derivatives from Oenanthe javanica on Antigen-Stimulated Degranulation in RBL-2H3 Cells” (J Nat Prod, 2019)
